Toxic doses and inconclusive results are not listed. No stated cut-off is given here; in the data, active means T/C of 150% or more; inactive means T/C below 125%.
Test system: L1210 leukemia ip in BDF1 mice, survival T/C
Assay: NCI In Vivo Anticancer Drug Screen. Data for tumor model L1210 Leukemia (intraperitoneal) in B6D2F1 (BDF1) mice
Settings: endpoint: mean survival time, higher = longer survival
In short: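 Transplantable tumor model; survival measured in treated vs vehicle control mice. Value = treated/control.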

[1] = dose: 100.0 mg/kg/injection, schedule: Q01DX009 (ip), vehicle: Klucel (hydroxypropylcellulose) (HPC)
[2] = dose: 200.0 mg/kg/injection, schedule: Q01DX009 (ip), vehicle: Klucel (hydroxypropylcellulose) (HPC)
[3] = dose: 400.0 mg/kg/injection, schedule: Q01DX009 (ip), vehicle: Klucel (hydroxypropylcellulose) (HPC)
[4] = dose: 75.0 mg/kg/injection, schedule: Q01DX001 (ip), vehicle: saline
[5] = dose: 150.0 mg/kg/injection, schedule: Q01DX001 (ip), vehicle: saline
[6] = dose: 100.0 mg/kg/injection, schedule: Q01DX001 (ip), vehicle: carboxymethylcellulose (CMC)
[7] = dose: 200.0 mg/kg/injection, schedule: Q01DX001 (ip), vehicle: carboxymethylcellulose (CMC)
[8] = dose: 400.0 mg/kg/injection, schedule: Q01DX001 (ip), vehicle: carboxymethylcellulose (CMC)

Measured: T/C

Cc1ccc([N+](=O)[O-])cc1NC(=O)NCc1ccccc1
inactive: [1] 89 % of control | [2] 89 % of control | [3] 97 % of control

N=C(N)c1ccc(-c2cc(-c3ccc(C(=N)N)cc3)on2)cc1
inactive: dose: 6.25 mg/kg/injection, schedule: Q04DX003 (ip), vehicle: saline 100 % of control | dose: 12.5 mg/kg/injection, schedule: Q04DX003 (ip), vehicle: saline 103 % of control | dose: 25.0 mg/kg/injection, schedule: Q04DX003 (ip), vehicle: saline 108 % of control

CN1CN(c2ccccc2)C2(CCNCC2)C1=O
inactive: [4] 102 % of control | [5] 96 % of control

CC(C)c1ccc(/C=C\C(=O)c2ccc(-c3ccccc3)cc2)cc1
inactive: dose: 100.0 mg/kg/injection, schedule: Q01DX009 (ip), vehicle: saline with Tween-80 103 % of control | dose: 100.0 mg/kg/injection, schedule: Q04DX002 (ip), vehicle: saline with Tween-80 86 % of control | dose: 200.0 mg/kg/injection, schedule: Q01DX009 (ip), vehicle: saline with Tween-80 106 % of control | dose: 200.0 mg/kg/injection, schedule: Q04DX002 (ip), vehicle: saline with Tween-80 101 % of control | dose: 400.0 mg/kg/injection, schedule: Q04DX002 (ip), vehicle: saline with Tween-80 101 % of control

Cc1cc(C)c(/C=C2\CCNC2=O)c(C)c1
inactive: dose: 50.0 mg/kg/injection, schedule: Q01DX001 (ip), vehicle: carboxymethylcellulose (CMC) 96 % of control | [6] 90 % of control | [7] 100 % of control | [8] 105 % of control

CCCC1(CC(C)CC)C(=O)NC(=O)NC1=O (centres undefined)
inactive: [4] 100 % of control | [5] 96 % of control | dose: 300.0 mg/kg/injection, schedule: Q01DX001 (ip), vehicle: saline 98 % of control

O=C(N=C1C=CC(=NC(=O)c2ccccc2)C=C1)c1ccccc1
inactive: dose: 75.0 mg/kg/injection, schedule: Q04DX003 (ip), vehicle: Klucel (hydroxypropylcellulose) (HPC) 87 % of control | dose: 150.0 mg/kg/injection, schedule: Q04DX003 (ip), vehicle: Klucel (hydroxypropylcellulose) (HPC) 92 % of control | dose: 300.0 mg/kg/injection, schedule: Q04DX003 (ip), vehicle: Klucel (hydroxypropylcellulose) (HPC) 87 % of control

Cc1cc2oc(=O)c3c(c2c(O)c1CN1CCCCC1)CCCC3
inactive: [6] 98 % of control | [7] 98 % of control | [8] 96 % of control

c1ccc(C2OC(c3ccccc3)C(c3ccccc3)OC2c2ccccc2)cc1 (centres undefined)
inactive: [1] 92 % of control | [2] 97 % of control | [3] 92 % of control
